Results published in patent US20140243286A1, “BROMODOMAIN LIGANDS CAPABLE OF DIMERIZING IN AN AQUEOUS SOLUTION, AND METHODS OF USING SAME” (Coferon, Inc., priority 2011, published 2014).
pIC50: −log10 of the molar value. Like-named read-outs stand apart in the source and are kept apart here.

Experiments:
[1] = molecular target: BRD4 (Homo sapiens, UniProt O60885); test: Fluorescence anisotropy (FA) binding assay, BRD4
Experimental: (§1) Fluorescence Anisotropy (FA) Binding Assays.
(§2) FA assays were performed as described in Chung et al., J. Med Chem., 2011 54(11): 3827-38 except that protein concentrations were 125 nM and plates were read on a Spectramax M5 plate reader.

[2] = molecular target: BRD3 (Homo sapiens, UniProt Q15059); test: Fluorescence anisotropy (FA) binding assay, BRD3
Experimental: as §1, §2

[3] = molecular target: BRD2 (Homo sapiens, UniProt P25440); test: Fluorescence anisotropy (FA) binding assay, BRD2
Experimental: as §1, §2

[4] = BRD4, protein 125 nM, read-out: IC50 range (FA assay) BRD4, BRD-E monomers
[5] = BRD3, protein 125 nM, read-out: IC50 range (FA assay) BRD3, BRD-E monomers
[6] = BRD2, protein 125 nM, read-out: IC50 range (FA assay) BRD2, BRD-E monomers
[7] = BRD4, protein 125 nM, read-out: IC50 range (FA assay) BRD4, BRD-N monomers
[8] = BRD3, protein 125 nM, read-out: IC50 range (FA assay) BRD3, BRD-N monomers
[9] = BRD2, protein 125 nM, read-out: IC50 range (FA assay) BRD2, BRD-N monomers

Sequence of BRD2 (P25440 whole entry): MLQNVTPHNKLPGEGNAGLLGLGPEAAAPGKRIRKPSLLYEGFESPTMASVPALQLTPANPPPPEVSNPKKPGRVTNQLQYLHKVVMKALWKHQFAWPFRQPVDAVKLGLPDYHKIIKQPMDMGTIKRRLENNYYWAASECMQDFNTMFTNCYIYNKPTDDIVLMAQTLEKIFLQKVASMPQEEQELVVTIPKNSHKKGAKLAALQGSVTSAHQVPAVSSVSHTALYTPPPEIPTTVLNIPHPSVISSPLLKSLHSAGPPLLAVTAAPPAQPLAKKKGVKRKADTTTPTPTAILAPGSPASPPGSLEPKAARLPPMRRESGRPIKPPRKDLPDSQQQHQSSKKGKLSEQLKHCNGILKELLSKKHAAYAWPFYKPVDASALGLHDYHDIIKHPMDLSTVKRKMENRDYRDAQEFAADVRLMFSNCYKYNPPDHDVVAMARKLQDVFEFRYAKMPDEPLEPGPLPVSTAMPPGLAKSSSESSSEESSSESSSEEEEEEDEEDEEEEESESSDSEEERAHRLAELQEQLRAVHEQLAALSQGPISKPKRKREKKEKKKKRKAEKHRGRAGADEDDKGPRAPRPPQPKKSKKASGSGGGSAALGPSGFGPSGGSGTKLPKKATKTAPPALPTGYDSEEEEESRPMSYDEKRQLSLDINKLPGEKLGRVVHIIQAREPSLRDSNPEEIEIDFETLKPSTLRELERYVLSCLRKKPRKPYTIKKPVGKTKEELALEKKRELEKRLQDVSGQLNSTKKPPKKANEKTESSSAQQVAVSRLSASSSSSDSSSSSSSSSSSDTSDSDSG
Sequence of BRD3 (Q15059 whole entry): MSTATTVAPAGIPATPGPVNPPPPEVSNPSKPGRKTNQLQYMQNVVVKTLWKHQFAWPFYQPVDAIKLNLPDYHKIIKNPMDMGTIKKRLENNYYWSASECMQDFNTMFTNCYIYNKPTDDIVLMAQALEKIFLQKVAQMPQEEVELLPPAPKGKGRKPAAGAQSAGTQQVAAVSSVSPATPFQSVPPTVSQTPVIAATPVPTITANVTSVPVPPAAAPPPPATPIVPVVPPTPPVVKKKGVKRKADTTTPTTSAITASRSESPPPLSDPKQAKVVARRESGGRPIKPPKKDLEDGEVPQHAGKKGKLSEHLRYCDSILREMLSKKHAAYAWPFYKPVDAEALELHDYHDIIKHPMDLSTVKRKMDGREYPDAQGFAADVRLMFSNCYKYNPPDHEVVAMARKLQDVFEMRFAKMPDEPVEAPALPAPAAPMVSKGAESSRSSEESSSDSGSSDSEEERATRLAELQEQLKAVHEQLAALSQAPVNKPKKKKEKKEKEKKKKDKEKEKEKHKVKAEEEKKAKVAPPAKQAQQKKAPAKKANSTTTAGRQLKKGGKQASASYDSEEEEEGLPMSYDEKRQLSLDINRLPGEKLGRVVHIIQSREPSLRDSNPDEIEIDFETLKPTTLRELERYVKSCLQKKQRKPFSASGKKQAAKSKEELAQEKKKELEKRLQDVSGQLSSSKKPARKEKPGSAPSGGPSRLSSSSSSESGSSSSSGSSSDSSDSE

COc1ccc2c(c1)C(c1ccc(Cl)cc1)=N[C@@H](CC(=O)NCCCNC(=O)c1ccc(B(O)O)cc1)c1nnc(C)n1-2 [BRD-E-03, (4-((3-(2-((4S)-6-(4-chlorophenyl)-8-methoxy-1-methyl-4H-benzo[f][1,2,4]triazolo[4,3-a][1,4]diazepin-4-yl)acetamido)propyl)carbamoyl)phenyl)-boronic acid]
pIC50 [1, 4]: 6.00 to 7.30
pIC50 [2, 5]: 6.00 to 7.30
pIC50 [3, 6]: 6.00 to 7.30

CCNC(=O)C[C@@H]1N=C(c2ccc(Cl)cc2)c2cc(OCCCC(=O)Nc3ccc(O)c(O)c3)ccc2-n2c(C)nnc21 [BRD-N-20, (S)-4-((6-(4-chlorophenyl)-4-(2-(ethylamino)-2-oxoethyl)-1-methyl-4H-benzo[f][1,2,4]triazolo[4,3-a][1,4]diazepin-8-yl)oxy)-N-(3,4-dihydroxyphenyl)butanamide]
pIC50 [1, 7]: 6.00 to 7.30
pIC50 [2, 8]: 6.00 to 7.30
pIC50 [3, 9]: 6.00 to 7.30

COc1ccc2c(c1)C(c1ccc(Cl)cc1)=N[C@@H](CC(=O)NCc1ccc(B(O)O)cc1)c1nnc(C)n1-2 [BRD-E-09, (S)-(4-((2-(6-(4-chlorophenyl)-8-methoxy-1-methyl-4H-benzo[f][1,2,4]triazolo[4,3-a][1,4]diazepin-4-yl)acetamido)methyl)phenyl)boronic acid]
pIC50 [1, 4]: 6.00 to 7.30
pIC50 [2, 5]: 6.00 to 7.30
pIC50 [3, 6]: 6.00 to 7.30

CCNC(=O)C[C@@H]1N=C(c2ccc(Cl)cc2)c2cc(OCCCNC(=O)c3cccc(O)c3O)ccc2-n2c(C)nnc21 [BRD-N-27, (S)—N-(3-((6-(4-chlorophenyl)-4-(2-(ethylamino)-2-oxoethyl)-1-methyl-4H-benzo[f][1,2,4]triazolo[4,3-a][1,4]diazepin-8-yl)oxy)propyl)-2,3-dihydroxybenzamide]
pIC50 [1, 7]: 6.00 to 7.30
pIC50 [2, 8]: 6.00 to 7.30
pIC50 [3, 9]: 4.52 to 6.00

COc1ccc2c(c1)C(c1ccc(Cl)cc1)=N[C@@H](CC(=O)NCCCNC(=O)c1cccc(B(O)O)c1)c1nnc(C)n1-2 [BRD-E-04, (3-((3-(2-((4S)-6-(4-chlorophenyl)-8-methoxy-1-methyl-4H-benzo[f][1,2,4]triazolo[4,3-a][1,4]diazepin-4-yl)acetamido)propyl)carbamoyl)phenyl)-boronic acid]
pIC50 [1, 4]: 6.00 to 7.30
pIC50 [2, 5]: 6.00 to 7.30
pIC50 [3, 6]: 6.00 to 7.30

COc1ccc2c(c1)C(c1ccc(Cl)cc1)=N[C@@H](CC(=O)NCCc1cccc(O)c1O)c1nnc(C)n1-2 [BRD-N-12, (S)-2-(6-(4-chlorophenyl)-8-methoxy-1-methyl-4H-benzo[f][1,2,4]triazolo[4,3-a][1,4]diazepin-4-yl)-N-(2,3-dihydroxyphenethyl)acetamide]
pIC50 [1, 7]: 6.00 to 7.30
pIC50 [2, 8]: 6.00 to 7.30
pIC50 [3, 9]: 6.00 to 7.30

COc1ccc2c(c1)C(c1ccc(Cl)cc1)=N[C@@H](CC(=O)NCCc1cccc(B(O)O)c1)c1nnc(C)n1-2 [BRD-E-14, (S)-(3-(2-(2-(6-(4-chlorophenyl)-8-methoxy-1-methyl-4H-benzo[f][1,2,4]triazolo[4,3-a][1,4]diazepin-4-yl)acetamido)ethyl)phenyl)boronic acid]
pIC50 [1, 4]: 6.00 to 7.30
pIC50 [2, 5]: 6.00 to 7.30
pIC50 [3, 6]: 6.00 to 7.30

CCNC(=O)C[C@@H]1N=C(c2ccc(Cl)cc2)c2cc(OCCCCNC(=O)c3ccc(O)c(O)c3)ccc2-n2c(C)nnc21 [BRD-N-28, (S)—N-(4-((6-(4-chlorophenyl)-4-(2-(ethylamino)-2-oxoethyl)-1-methyl-4H-benzo[f][1,2,4]triazolo[4,3-a][1,4]diazepin-8-yl)oxy)butyl)-3,4-dihydroxybenzamide]
pIC50 [1, 7]: 4.52 to 6.00
pIC50 [2, 8]: 6.00 to 7.30
pIC50 [3, 9]: 4.52 to 6.00

COc1ccc2c(c1)C(c1ccc(Cl)cc1)=N[C@@H](CC(=O)NCCNC(=O)Cc1ccc(O)c(O)c1)c1nnc(C)n1-2 [BRD-N-30, 2-((4S)-6-(4-chlorophenyl)-8-methoxy-1-methyl-4H-benzo[f][1,2,4]triazolo[4,3-a][1,4]diazepin-4-yl)-N-(2-(2-(3,4-dihydroxyphenyl)acetamido)ethyl)acetamide]
pIC50 [1, 7]: 6.00 to 7.30
pIC50 [2, 8]: 6.00 to 7.30
pIC50 [3, 9]: 6.00 to 7.30

CCNC(=O)C[C@@H]1N=C(c2ccc(Cl)cc2)c2cc(OCCNC(=O)c3cccc(B(O)O)c3)ccc2-n2c(C)nnc21 [BRD-E-21, (S)-(3-((2-((6-(4-chlorophenyl)-4-(2-(ethylamino)-2-oxoethyl)-1-methyl-4H-benzo[f][1,2,4]triazolo[4,3-a]diazepin-8-yl)oxy)ethyl)carbamoyl)phenyl)boronic acid]
pIC50 [1, 4]: 6.00 to 7.30
pIC50 [2, 5]: 6.00 to 7.30
pIC50 [3, 6]: 6.00 to 7.30

CCNC(=O)C[C@@H]1N=C(c2ccc(Cl)cc2)c2cc(OCCNC(=O)c3cccc(O)c3O)ccc2-n2c(C)nnc21 [BRD-N-25, (S)—N-(2-((6-(4-chlorophenyl)-4-(2-(ethylamino)-2-oxoethyl)-1-methyl-4H-benzo[f][1,2,4]triazolo[4,3-a][1,4]diazepin-8-yl)oxy)ethyl)-2,3-dihydroxybenzamide]
pIC50 [1, 7]: 6.00 to 7.30
pIC50 [2, 8]: 6.00 to 7.30
pIC50 [3, 9]: 4.52 to 6.00

COc1ccc2c(c1)C(c1ccc(Cl)cc1)=N[C@@H](CC(=O)NCCCCCNC(=O)c1ccc(B(O)O)cc1)c1nnc(C)n1-2 [BRD-E-07, (4-((5-(2-((4S)-6-(4-chlorophenyl)-8-methoxy-1-methyl-4H-benzo[f][1,2,4]triazolo[4,3-a][1,4]diazepin-4-yl)acetamido)pentyl)carbamoyl)phenyl)-boronic acid]
pIC50 [1]: 6.00 to 7.30
pIC50 [2]: 6.00 to 7.30
pIC50 [3]: 6.00 to 7.30

COc1ccc2c(c1)C(c1ccc(Cl)cc1)=N[C@@H](CC(=O)NCCCCNC(=O)c1cccc(O)c1O)c1nnc(C)n1-2 [BRD-N-06, N-(4-(2-((4S)-6-(4-chlorophenyl)-8-methoxy-1-methyl-4H-benzo[f][1,2,4]triazolo[4,3-a][1,4]diazepin-4-yl)acetamido)butyl)-2,3-dihydroxybenzamide]
pIC50 [1]: 6.00 to 7.30
pIC50 [2]: 4.52 to 6.00
pIC50 [3]: 6.00 to 7.30

CCNC(=O)C[C@@H]1N=C(c2ccc(Cl)cc2)c2cc(OCC(=O)Nc3ccc(O)c(O)c3)ccc2-n2c(C)nnc21 [BRD-N-16, (S)-2-((6-(4-chlorophenyl)-4-(2-(ethylamino)-2-oxoethyl)-1-methyl-4H-benzo[f][1,2,4]triazolo[4,3-a][1,4]diazepin-8-yl)oxy)-N-(3,4-dihydroxyphenyl)acetamide]
pIC50 [1, 7]: 6.00 to 7.30
pIC50 [2, 8]: 6.00 to 7.30
pIC50 [3, 9]: 6.00 to 7.30

CCNC(=O)C[C@@H]1N=C(c2ccc(Cl)cc2)c2cc(OCCCC(=O)Nc3cccc(B(O)O)c3)ccc2-n2c(C)nnc21 [BRD-E-19]
pIC50 [1, 4]: 6.00 to 7.30
pIC50 [2, 5]: 6.00 to 7.30
pIC50 [3, 6]: 6.00 to 7.30

CCNC(=O)C[C@@H]1N=C(c2ccc(Cl)cc2)c2cc(OCC(=O)Nc3cccc(O)c3O)ccc2-n2c(C)nnc21 [BRD-N-17, (S)-2-((6-(4-chlorophenyl)-4-(2-(ethylamino)-2-oxoethyl)-1-methyl-4H-benzo[f][1,2,4]triazolo[4,3-a][1,4]diazepin-8-yl)oxy)-N-(2,3-dihydroxyphenyl)acetamide]
pIC50 [1, 7]: 6.00 to 7.30
pIC50 [2, 8]: 4.52 to 6.00
pIC50 [3, 9]: 6.00 to 7.30

CCNC(=O)C[C@@H]1N=C(c2ccc(Cl)cc2)c2cc(OCCCCC(=O)Nc3cccc(B(O)O)c3)ccc2-n2c(C)nnc21 [BRD-E-20, (S)-(3-(5-((6-(4-chlorophenyl)-4-(2-(ethylamino)-2-oxoethyl)-1-methyl-4H-benzo[f][1,2,4]triazolo[4,3-a][1,4]diazepin-8-yl)oxy)pentanamido)phenyl)boronic acid]
pIC50 [1, 4]: 6.00 to 7.30
pIC50 [2, 5]: 6.00 to 7.30
pIC50 [3, 6]: 6.00 to 7.30

COc1ccc2c(c1)C(c1ccc(Cl)cc1)=N[C@@H](CC(=O)NCCc1ccc(B(O)O)cc1)c1nnc(C)n1-2 [BRD-E-13, (S)-(4-(2-(2-(6-(4-chlorophenyl)-8-methoxy-1-methyl-4H-benzo[f][1,2,4]triazolo[4,3-a][1,4]diazepin-4-yl)acetamido)ethyl)phenyl)boronic acid]
pIC50 [1, 4]: 6.00 to 7.30
pIC50 [2, 5]: 6.00 to 7.30
pIC50 [3, 6]: 4.52 to 6.00

CCNC(=O)C[C@@H]1N=C(c2ccc(Cl)cc2)c2cc(OCCCCC(=O)Nc3ccc(O)c(O)c3)ccc2-n2c(C)nnc21 [BRD-N-22, (S)-5-((6-(4-chlorophenyl)-4-(2-(ethylamino)-2-oxoethyl)-1-methyl-4H-benzo[f][1,2,4]triazolo[4,3-a][1,4]diazepin-8-yl)oxy)-N-(3,4-dihydroxyphenyl)pentanamide]
pIC50 [1, 7]: 6.00 to 7.30
pIC50 [2, 8]: 6.00 to 7.30
pIC50 [3, 9]: 6.00 to 7.30

COc1ccc2c(c1)C(c1ccc(Cl)cc1)=N[C@@H](CC(=O)NCCNC(=O)c1cccc(B(O)O)c1)c1nnc(C)n1-2 [BRD-E-02, (3-((2-(2-((4S)-6-(4-chlorophenyl)-8-methoxy-1-methyl-4H-benzo[f][1,2,4]triazolo[4,3-a][1,4]diazepin-4-yl)acetamido)ethyl)carbamoyl)phenyl)boronic acid]
pIC50 [1]: 6.00 to 7.30
pIC50 [2]: 6.00 to 7.30
pIC50 [3]: 6.00 to 7.30

COc1ccc2c(c1)C(c1ccc(Cl)cc1)=N[C@@H](CC(=O)NCCCCNC(=O)c1ccc(B(O)O)cc1)c1nnc(C)n1-2 [BRD-E-05, (4-((4-(2-((4S)-6-(4-chlorophenyl)-8-methoxy-1-methyl-4H-benzo[f][1,2,4]triazolo[4,3-a][1,4]diazepin-4-yl)acetamido)butyl)carbamoyl)phenyl)boronic acid]
pIC50 [1, 4]: 6.00 to 7.30
pIC50 [2, 5]: 6.00 to 7.30
pIC50 [3, 6]: 6.00 to 7.30

COc1ccc2c(c1)C(c1ccc(Cl)cc1)=N[C@@H](CC(=O)NCCNC(=O)Cc1ccc(B(O)O)cc1)c1nnc(C)n1-2 [BRD-E-27, (4-(2-((2-(2-((4S)-6-(4-chlorophenyl)-8-methoxy-1-methyl-4H-benzo[f][1,2,4]triazolo[4,3-a][1,4]diazepin-4-yl)acetamido)ethyl)amino)-2-oxoethyl)phenyl)boronic acid]
pIC50 [1, 4]: 4.52 to 6.00
pIC50 [3, 6]: 4.52 to 6.00
